Measurements reported in patent US6358885B1, “Substituted phenylheterocyclic herbicides” (Mississippi State University, priority 1992, dated 2002).

How the values were obtained:
rape = assay: Test C preemergence/postemergence greenhouse plant response rating 0 to 100; type: in vivo, Brassica napus; details: POSTEMERGENCE
Excerpt: (§1) The compounds evaluated in this test were formulated in a non-phytoxic solvent and applied to the soil surface before plant seedlings emerged (preemergence application), to water that covered the soil surface (flood application), and to plants that were in the one-to-four leaf stage (postemergence application). A sandy loam soil was used for the preemergence and postemergence tests, while a silt loam soil was used in the flood test. Water depth was approximately 2.5 cm for the flood test and was maintained at this level for the duration of the test. Plant species in the preemergence and postemergence tests consisted of barley (Hordeum vulgare), bedstraw (Galium aparine), blackgrass (Alopecurus myosuroides), chickweed (Stellaria media), corn (Zea mays), cotton (Gossypium hirsutum), crabgrass (Digitaria sanguinalis), downy brome (Bromus tectorum), giant foxtail (Setaria faberii), lambsquarters (Chenopodium album), morningglory (Ipomoea hederacea), pigweed ([…]), rape (Brassica napus), ryegrass (Lolium multiflorum), sorghum (Sorghum bicolor), soybean (Glycine max), speedwell (Veronica persica), sugar beet (Beta vulgaris), velvetleaf (Abutilon theophrasti), wheat (Triticum aestivum), wild buckwheat (Polygonum convolvulus), and wild oat (Avena fatua). All plant species were planted one day before application of the compound for the preemergence portion-of this test. Plantings of these species were adjusted to produce plants of appropriate size for the post-emergence portion of the test. […] All plant species were grown using normal greenhouse practices. Visual evaluations of injury expressed on treated plants, when compared to untreated controls, were recorded approximately fourteen to twenty one days after application of the test compound. […] A dash (-) response means no test result.

lambsquarters [1] = assay: as above; type: in vivo, Chenopodium album; details: POSTEMERGENCE
Excerpt: as §1

soybean [2] = assay: Test B preemergence/postemergence greenhouse plant response rating 0 to 10; type: in vivo, Glycine max; details: 0 to 10 scale
Procedure, shortened: (§2)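 Test chemicals, dissolved in a non-phytotoxic solvent, were applied to soil at planting and, at the same time, over foliage of seedlings at the one to four leaf stage.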

corn = assay: Test C preemergence/postemergence greenhouse plant response rating 0 to 100; type: in vivo, Zea mays; details: POSTEMERGENCE
Excerpt: as §1

velvetleaf [3] = assay: Test B preemergence/postemergence greenhouse plant response rating 0 to 10; type: in vivo, Abutilon theophrasti; details: 0 to 10 scale
Procedure, shortened: as §2

lambsquarters [4] = assay: as above; type: in vivo, Chenopodium album; details: 0 to 10 scale
Procedure, shortened: as §2

sorghum = assay: Test C preemergence/postemergence greenhouse plant response rating 0 to 100; type: in vivo, Sorghum bicolor; details: POSTEMERGENCE
Excerpt: as §1

sugar beet = assay: as above; type: in vivo, Beta vulgaris; details: POSTEMERGENCE
Excerpt: as §1

soybean [5] = assay: as above; type: in vivo, Glycine max; details: POSTEMERGENCE
Excerpt: as §1

cotton = assay: Test B preemergence/postemergence greenhouse plant response rating 0 to 10; type: in vivo, Gossypium hirsutum; details: 0 to 10 scale
Procedure, shortened: as §2

wild buckwheat = assay: as above; type: in vivo, Polygonum convolvulus; details: 0 to 10 scale
Procedure, shortened: as §2

purple nutsedge = assay: as above; type: in vivo, Cyperus rotundus; details: 0 to 10 scale
Procedure, shortened: as §2

rice = assay: as above; type: in vivo, Oryza sativa; details: 0 to 10 scale
Procedure, shortened: as §2

morningglory = assay: Test C preemergence/postemergence greenhouse plant response rating 0 to 100; type: in vivo, Ipomoea hederacea; details: POSTEMERGENCE
Excerpt: as §1

velvetleaf [6] = assay: as above; type: in vivo, Abutilon theophrasti; details: POSTEMERGENCE
Excerpt: as §1

barley = assay: as above; type: in vivo, Hordeum vulgare; details: POSTEMERGENCE
Excerpt: as §1

cheatgrass = assay: Test B preemergence/postemergence greenhouse plant response rating 0 to 10; type: in vivo, Bromus secalinus; details: 0 to 10 scale
Procedure, shortened: as §2

C#CCN1C(=O)COc2cc(F)c(-c3nn4c(c3Br)CCCC4)cc21 [Compound 56]
Plant response rating, Rape (rape; 62 g/ha, 0 to 100 scale): 100 | Plant response rating (0 to 100), Rape (rape; Rate 1 g/ha): 100 | Plant response rating (0 to 100), Rape (rape; Rate 4 g/ha): 100 | Plant response rating (0 to 100), Rape (rape; Rate 16 g/ha): 100 | Plant response rating Lambsquarters (lambsquarters [1]; 62 g/ha, 0 to 100 scale): 100 | Plant response rating (0 to 100), Lambsquarters (lambsquarters [1]; Rate 1 g/ha): 85 | Plant response rating (0 to 100), Lambsquarters (lambsquarters [1]; Rate 4 g/ha): 100 | Plant response rating (0 to 100), Lambsquarters (lambsquarters [1]; Rate 16 g/ha): 100 | Plant response rating, Soybean (soybean [2]; POSTEMERGENCE, Rate 10 g/ha): 9 | Plant response rating, Soybean (soybean [2]; POSTEMERGENCE, Rate 50 g/ha): 8 | Plant response rating, Soybean (soybean [2]; PREEMERGENCE, Rate 50 g/ha): 0 | Plant response rating, Corn (corn; 62 g/ha, 0 to 100 scale): 50 | Plant response rating (0 to 100), Corn (corn; Rate 1 g/ha): 20 | Plant response rating (0 to 100), Corn (corn; Rate 4 g/ha): 30 | Plant response rating (0 to 100), Corn (corn; Rate 16 g/ha): 40 | Plant response rating, Velvetleaf (velvetleaf [3]; POSTEMERGENCE, Rate 10 g/ha): 9 | Plant response rating, Velvetleaf (velvetleaf [3]; POSTEMERGENCE, Rate 50 g/ha): 9 | Plant response rating, Velvetleaf (velvetleaf [3]; PREEMERGENCE, Rate 50 g/ha): 10 | Plant response rating, Lambsquarter (lambsquarters [4]; POSTEMERGENCE, Rate 10 g/ha): 10 | Plant response rating, Lambsquarter (lambsquarters [4]; POSTEMERGENCE, Rate 50 g/ha): 10 | Plant response rating, Lambsquarter (lambsquarters [4]; PREEMERGENCE, Rate 50 g/ha): 10 | Plant response rating, Sorghum (sorghum; 62 g/ha, 0 to 100 scale): 60 | Plant response rating (0 to 100), Sorghum (sorghum; Rate 1 g/ha): 20 | Plant response rating (0 to 100), Sorghum (sorghum; Rate 4 g/ha): 30 | Plant response rating (0 to 100), Sorghum (sorghum; Rate 16 g/ha): 50 | Plant response rating, Sugar beet (sugar beet; 62 g/ha, 0 to 100 scale): 100 | Plant response rating (0 to 100), Sugar beet (sugar beet; Rate 1 g/ha): 100 | Plant response rating (0 to 100), Sugar beet (sugar beet; Rate 4 g/ha): 100 | Plant response rating (0 to 100), Sugar beet (sugar beet; Rate 16 g/ha): 100 | Plant response rating, Soybean (soybean [5]; 62 g/ha, 0 to 100 scale): 95 | Plant response rating (0 to 100), Soybean (soybean [5]; Rate 1 g/ha): 40 | Plant response rating (0 to 100), Soybean (soybean [5]; Rate 4 g/ha): 60 | Plant response rating (0 to 100), Soybean (soybean [5]; Rate 16 g/ha): 90 | Plant response rating, Cotton (cotton; POSTEMERGENCE, Rate 10 g/ha): 10 | Plant response rating, Cotton (cotton; POSTEMERGENCE, Rate 50 g/ha): 10 | Plant response rating, Cotton (cotton; PREEMERGENCE, Rate 10 g/ha): 0 | Plant response rating, Cotton (cotton; PREEMERGENCE, Rate 50 g/ha): 0 | Plant response rating, Wild buckwheat (wild buckwheat; POSTEMERGENCE, Rate 10 g/ha): 10 | Plant response rating, Wild buckwheat (wild buckwheat; POSTEMERGENCE, Rate 50 g/ha): 10 | Plant response rating, Wild buckwheat (wild buckwheat; PREEMERGENCE, Rate 50 g/ha): 9 | Plant response rating, Nutsedge (purple nutsedge; POSTEMERGENCE, Rate 10 g/ha): 4 | Plant response rating, Nutsedge (purple nutsedge; POSTEMERGENCE, Rate 50 g/ha): 7 | Plant response rating, Nutsedge (purple nutsedge; PREEMERGENCE, Rate 50 g/ha): 4 | Plant response rating, Rice (rice; POSTEMERGENCE, Rate 10 g/ha): 3 | Plant response rating, Rice (rice; POSTEMERGENCE, Rate 50 g/ha): 4 | Plant response rating, Rice (rice; PREEMERGENCE, Rate 50 g/ha): 0 | Plant response rating, Morningglory (morningglory; 62 g/ha, 0 to 100 scale): 100 | Plant response rating (0 to 100), Morningglory (morningglory; Rate 1 g/ha): 50 | Plant response rating (0 to 100), Morningglory (morningglory; Rate 4 g/ha): 100 | Plant response rating (0 to 100), Morningglory (morningglory; Rate 16 g/ha): 100 | Plant response rating, Velvetleaf (velvetleaf [6]; 62 g/ha, 0 to 100 scale): 100 | Plant response rating (0 to 100), Velvetleaf (velvetleaf [6]; Rate 1 g/ha): 100 | Plant response rating (0 to 100), Velvetleaf (velvetleaf [6]; Rate 4 g/ha): 100 | Plant response rating (0 to 100), Velvetleaf (velvetleaf [6]; Rate 16 g/ha): 100 | Plant response rating Barley Igri (barley; 62 g/ha, 0 to 100 scale): 50 | Plant response rating (0 to 100), Barley Igri (barley; Rate 1 g/ha): 30 | Plant response rating (0 to 100), Barley Igri (barley; Rate 4 g/ha): 30 | Plant response rating (0 to 100), Barley Igri (barley; Rate 16 g/ha): 50 | Plant response rating, Cheatgrass (cheatgrass; POSTEMERGENCE, Rate 10 g/ha): 5 | Plant response rating, Cheatgrass (cheatgrass; POSTEMERGENCE, Rate 50 g/ha): 6 | Plant response rating, Cheatgrass (cheatgrass; PREEMERGENCE, Rate 10 g/ha): 5 | Plant response rating, Cheatgrass (cheatgrass; PREEMERGENCE, Rate 50 g/ha): 5
